Results on 21 compounds are retold here after patent US11247990B1, “Bicyclic fused pyridine compounds as inhibitors of TAM kinases” (ARRAY BIOPHARMA INC., priority 2017, dated 2022).

In general, IC50 refers to the concentration that gives 50% inhibition.

Conditions in all cases: averaged IC50
The target in experiment [1] is His-tagged recombinant human AXL cytoplasmic domain (Homo sapiens (Human), UniProt P30530). As to the kind of experiment: AXL Enzyme Assay (LanthaScreen Eu Kinase Binding, TR-FRET). On the procedure: Compounds of Formula I were screened for their ability to inhibit AXL kinase using Invitrogen's LanthaScreen™ Eu Kinase Binding technology. […] After a 60-minute incubation at 22° C., the reaction was measured using a PerkinElmer EnVision multimode plate reader via TR-FRET dual wavelength detection, and the percent of control (POC) was calculated using a ratiometric emission factor. […] The POC values are fit to a 4 parameter logistic curve and the IC50 value is point where the curve crosses 50 POC.
His-tagged recombinant human AXL cytoplasmic domain, sequence (P30530 473-894): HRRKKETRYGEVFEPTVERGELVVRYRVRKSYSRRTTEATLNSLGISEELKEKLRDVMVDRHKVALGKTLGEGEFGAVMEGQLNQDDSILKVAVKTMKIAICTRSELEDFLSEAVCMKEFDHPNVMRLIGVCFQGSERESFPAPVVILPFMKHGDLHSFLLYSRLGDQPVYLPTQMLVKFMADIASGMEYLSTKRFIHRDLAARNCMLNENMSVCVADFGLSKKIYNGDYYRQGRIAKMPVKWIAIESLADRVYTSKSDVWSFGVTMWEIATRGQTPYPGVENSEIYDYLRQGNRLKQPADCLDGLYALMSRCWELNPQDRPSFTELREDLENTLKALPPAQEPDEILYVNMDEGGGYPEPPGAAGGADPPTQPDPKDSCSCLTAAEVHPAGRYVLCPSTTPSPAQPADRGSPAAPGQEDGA

Experiment [2] concerns the target GST-tagged recombinant human TYRO3 kinase domain (Homo sapiens (Human), UniProt Q06418). As to the kind of experiment: TYRO3 Enzyme Assay (LanthaScreen Eu Kinase Binding, TR-FRET). Summed up:
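LanthaScreen Eu binding (tracer displacement) format read by TR-FRET after 60 min at 22 °C. Emission ratio converted to percent of control; IC50 taken where a 4-parameter logistic fit crosses 50 POC.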

Experiment [3] addresses His-tagged recombinant human MER cytoplasmic domain (Homo sapiens (Human), UniProt Q12866). As to the kind of experiment: MER Enzyme Assay (LanthaScreen Eu Kinase Binding, TR-FRET). Put shortly:
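Percent of control, derived from ratiometric TR-FRET emission, was fitted to a 4-parameter logistic curve and IC50 taken at 50 POC. Binding was read after 60 min at 22 °C using Eu-based LanthaScreen technology and recombinant His-tagged MER cytoplasmic domain.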

His-tagged recombinant human MER cytoplasmic domain, sequence (Q12866 527-999): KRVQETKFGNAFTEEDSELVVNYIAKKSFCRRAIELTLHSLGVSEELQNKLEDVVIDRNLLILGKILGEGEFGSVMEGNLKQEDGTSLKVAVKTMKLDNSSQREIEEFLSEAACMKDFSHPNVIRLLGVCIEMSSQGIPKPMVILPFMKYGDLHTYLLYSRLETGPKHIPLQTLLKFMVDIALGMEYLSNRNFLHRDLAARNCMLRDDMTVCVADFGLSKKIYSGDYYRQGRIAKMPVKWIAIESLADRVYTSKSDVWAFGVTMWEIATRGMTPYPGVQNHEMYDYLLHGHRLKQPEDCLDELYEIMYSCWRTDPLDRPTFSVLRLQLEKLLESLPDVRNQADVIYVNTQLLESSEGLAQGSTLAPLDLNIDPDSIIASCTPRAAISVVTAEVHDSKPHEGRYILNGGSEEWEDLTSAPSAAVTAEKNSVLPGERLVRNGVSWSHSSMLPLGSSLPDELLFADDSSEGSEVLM
GST-tagged recombinant human TYRO3 kinase domain, sequence (Q06418 518-790): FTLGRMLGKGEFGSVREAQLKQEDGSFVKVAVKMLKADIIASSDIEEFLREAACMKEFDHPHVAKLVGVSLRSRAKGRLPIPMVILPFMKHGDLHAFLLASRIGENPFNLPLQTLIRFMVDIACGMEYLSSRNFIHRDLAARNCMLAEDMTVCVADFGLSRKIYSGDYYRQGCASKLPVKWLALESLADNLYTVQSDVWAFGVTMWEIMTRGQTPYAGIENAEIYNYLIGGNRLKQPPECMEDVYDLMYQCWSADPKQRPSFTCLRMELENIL

Take `CNc1cc2c(cn1)c(-c1cnn(C)c1)nn2[C@@H]1CC[C@H](Oc2ccccc2)[C@@H](O)C1` (racemic) [Example 470, Racemic-(1S,2S,5R)-5-(3-(1-methyl-1H-pyrazol-4-yl)-6-(methylamino)-1H-pyrazolo[4,3-c]pyridin-1-yl)-2-phenoxycyclohexan-1-ol]: the IC50 is under 10 nM in experiment [1], 10 to 100 nM in experiment [2] and under 10 nM in experiment [3].
For the compound `CCNc1cc2c(cn1)c(N1CC[C@@H](N(C)C)C1)nn2[C@H]1CC[C@@H](Oc2nccc(C(F)(F)F)c2F)CC1` (stereo in doubt) [Example 334, 3-(®-3-(dimethylamino)pyrrolidin-1-yl)-N-ethyl-1-((1s,4S)-4-((3-fluoro-4-(trifluoromethyl)pyridin-2-yl)oxy)cyclohexyl)-1H-pyrazolo[4,3-c]pyridin-6-amine], the IC50 in experiment [1], in experiment [2] and in experiment [3] was under 10 nM in each case.
In the case of `CNc1cc2c(cn1)c(-c1ccc(C3(N4CCN(C)CC4)CC3)cc1)nn2[C@H]1CC[C@@H](Oc2ccc(=O)n(C)n2)CC1` [Example 53, 2-methyl-6-(((1s,4s)-4-(6-(methylamino)-3-(4-(1-(4-methylpiperazin-1-yl)cyclopropyl)phenyl)-1H-pyrazolo[4,3-c]pyridin-1-yl)cyclohexyl)oxy)pyridazin-3(2H)-one], the IC50 in experiment [1] is under 10 nM; in experiment [2] it was 100 to 1000 nM; in experiment [3] it was under 10 nM.
Turning to `Cn1cc(-c2nn([C@H]3CC[C@@H](Oc4ccc(=O)n(C)n4)CC3)c3cc(N)ncc23)cn1` [Example 75, 6-(((1s,4s)-4-(6-amino-3-(1-methyl-1H-pyrazol-4-yl)-1H-pyrazolo[4,3-c]pyridin-1-yl)cyclohexyl)oxy)-2-methylpyridazin-3(2H)-one], the IC50 in experiment [1], in experiment [2] and in experiment [3] was 1000 to 10000 nM throughout.
As for `CNc1cc2c(cn1)c(-c1ccc(CN3CCN(CCO)CC3)cc1)nn2[C@H]1CC[C@@H](Oc2ccc(=O)n(C)n2)CC1` [Example 78, 6-(((1s,4s)-4-(3-(4-((4-(2-hydroxyethyl)piperazin-1-yl)methyl)phenyl)-6-(methylamino)-1H-pyrazolo[4,3-c]pyridin-1-yl)cyclohexyl)oxy)-2-methylpyridazin-3(2H)-one], the figures for the IC50 in experiment [1], in experiment [2] and in experiment [3] were under 10 nM, 100 to 1000 nM and under 10 nM, respectively.
Turning to `CCNc1cc2c(cn1)c(-c1ncco1)nn2[C@H]1CC[C@@H](Oc2ccc(=O)n(C)n2)CC1` [Example 81, 6-(((1s,4s)-4-(6-(ethylamino)-3-(oxazol-2-yl)-1H-pyrazolo[4,3-c]pyridin-1-yl)cyclohexyl)oxy)-2-methylpyridazin-3(2H)-one bis(2,2,2-trifluoroacetate)], the IC50 in experiment [1], in experiment [2] and in experiment [3] was 1000 to 10000 nM each time.
As to `CCNc1cc2c(cn1)c(-c1ccn(CCN3CCOCC3)n1)nn2[C@H]1CC[C@@H](Oc2ccc(=O)n(C)n2)CC1` [Example 101, 6-(((1s,4s)-4-(6-(ethylamino)-3-(1-(2-morpholinoethyl)-1H-pyrazol-3-yl)-1H-pyrazolo[4,3-c]pyridin-1-yl)cyclohexyl)oxy)-2-methylpyridazin-3(2H)-one], the IC50 in experiment [1] and in experiment [2] was 1000 to 10000 nM in each case.
Consider `CNc1cc2c(cn1)c(-c1cnn(C)c1)nn2[C@H]1CC[C@@H](Oc2ccc(=O)[nH]c2C(F)(F)F)CC1` [Example 105, 5-(((1s,4s)-4-(3-(1-methyl-1H-pyrazol-4-yl)-6-(methylamino)-1H-pyrazolo[4,3-c]pyridin-1-yl)cyclohexyl)oxy)-6-(trifluoromethyl)pyridin-2(1H)-one], for which the IC50 in experiment [1], in experiment [2] and in experiment [3] was under 10 nM in each case.
As for `CCNc1cc2c(cn1)c(-c1cnn(C)c1)nn2[C@H]1CC[C@@H](Oc2cccn(C)c2=O)CC1` [Example 109, 3-(((1s,4s)-4-(6-(ethylamino)-3-(1-methyl-1H-pyrazol-4-yl)-1H-pyrazolo[4,3-c]pyridin-1-yl)cyclohexyl)oxy)-1-methylpyridin-2(1H)-one], the IC50 in experiment [1] and in experiment [2] was 1000 to 10000 nM each time.
With `CCn1c(O[C@H]2CC[C@@H](n3nc(-c4cnn(C)c4)c4cnc(NC)cc43)CC2)cccc1=O` [Example 111, 1-ethyl-6-(((1s,4s)-4-(3-(1-methyl-1H-pyrazol-4-yl)-6-(methylamino)-1H-pyrazolo[4,3-c]pyridin-1-yl)cyclohexyl)oxy)pyridin-2(1H)-one], the IC50 in experiment [1] was under 10 nM; in experiment [2] it was 10 to 100 nM; in experiment [3] it was under 10 nM.
On to `CNc1cc2c(cn1)c(-c1cnn(C)c1)nn2[C@H]1CC[C@@H](Oc2cccnc2C(F)(F)F)CC1` [Example 137, N-methyl-3-(1-methyl-1H-pyrazol-4-yl)-1-((1s,4s)-4-((2-(trifluoromethyl)pyridin-3-yl)oxy)cyclohexyl)-1H-pyrazolo[4,3-c]pyridin-6-amine], for which the 50% inhibitory concentration (IC50) in experiment [1], in experiment [2] and in experiment [3] was under 10 nM throughout.
Regarding `CNc1cc2c(cn1)c(-c1cnn(C)c1)nn2[C@H]1CC[C@@H](Oc2cccnc2C#N)CC1` [Example 140, 3-(((1s,4s)-4-(3-(1-methyl-1H-pyrazol-4-yl)-6-(methylamino)-1H-pyrazolo[4,3-c]pyridin-1-yl)cyclohexyl)oxy)picolinonitrile], the half-inhibitory concentration (IC50) in experiment [1], in experiment [2] and in experiment [3] was under 10 nM each time.
With `CNc1cc2c(cn1)c(-c1cnn(C(C)(C)C#N)c1)nn2[C@H]1CC[C@@H](Oc2cccnc2C(F)(F)F)CC1` [Example 160, 2-methyl-2-(4-(6-(methylamino)-1-((1s,4s)-4-((2-(trifluoromethyl)pyridin-3-yl)oxy)cyclohexyl)-1H-pyrazolo[4,3-c]pyridin-3-yl)-1H-pyrazol-1-yl)propanenitrile], the IC50 in experiment [1], in experiment [2] and in experiment [3] was under 10 nM each time.
With `CNc1cc2c(cn1)c(-c1cnn(C)c1)nn2[C@H]1CC[C@@H](Oc2cn(C)nc2C(F)(F)F)CC1` [Example 162, N-methyl-3-(1-methyl-1H-pyrazol-4-yl)-1-((1s,4s)-4-((1-methyl-3-(trifluoromethyl)-1H-pyrazol-4-yl)oxy)cyclohexyl)-1H-pyrazolo[4,3-c]pyridin-6-amine], the IC50 in experiment [1], in experiment [2] and in experiment [3] was under 10 nM throughout.
As for `CNc1cc2c(cn1)c(-c1cnn(C(C)(C)C#N)c1)nn2[C@H]1CC[C@@H](Oc2cn(C)nc2C(F)(F)F)CC1` [Example 163, 2-methyl-2-(4-(1-((1s,4s)-4-((1-methyl-3-(trifluoromethyl)-1H-pyrazol-4-yl)oxy)cyclohexyl)-6-(methylamino)-lH-pyrazolo[4,3-c]pyridin-3-yl)-1H-pyrazol-1-yl)propanenitrile], the concentration for half-maximal inhibition (IC50) in experiment [1], in experiment [2] and in experiment [3] was under 10 nM throughout.
For `CCNc1cc2c(cn1)c(-c1ccc3c(c1)CN(C)S3(=O)=O)nn2[C@H]1CC[C@@H](Oc2cnn(C)c2C(F)(F)F)CC1` [Example 224, 5-(6-(ethylamino)-1-((1s,4s)-4-((1-methyl-5-(trifluoromethyl)-1H-pyrazol-4-yl)oxy)cyclohexyl)-1H-pyrazolo[4,3-c]pyridin-3-yl)-2-methyl-2,3-dihydrobenzo[d]isothiazole 1,1-dioxide], the IC50 in experiment [1] and in experiment [2] was 1000 to 10000 nM each time.
As to `CNc1cc2c(cn1)c(-c1cnn(C)c1)nn2[C@H]1CC[C@@H](Oc2ccccc2C#N)CC1` [Example 363, 2-(((1s,4s)-4-(3-(1-methyl-1H-pyrazol-4-yl)-6-(methylamino)-1H-pyrazolo[4,3-c]pyridin-1-yl)cyclohexyl)oxy)benzonitrile], the IC50 in experiment [1] and in experiment [3] was under 10 nM each time.
`CNc1cc2c(cn1)c(-c1cnn(C)c1)nn2[C@H]1CC[C@@H](Oc2ccccc2)CC1` [Example 371, N-methyl-3-(1-methyl-1H-pyrazol-4-yl)-1-((1s,4s)-4-phenoxycyclohexyl)-1H-pyrazolo[4,3-c]pyridin-6-amine]: the IC50 in experiment [1] and in experiment [3] was under 10 nM each time.
In the case of `CNc1cc2c(cn1)c(-c1cnn(C(C)(C)C#N)c1)nn2[C@H]1CC[C@@H](Oc2ccccc2F)CC1` [Example 394, 2-(4-(1-((1s,4s)-4-(2-fluorophenoxy)cyclohexyl)-6-(methylamino)-1H-pyrazolo[4,3-c]pyridin-3-yl)-1H-pyrazol-1-yl)-2-methylpropanenitrile], the IC50 in experiment [1] and in experiment [3] was under 10 nM each time.
`CNc1cc2c(cn1)c(-c1cnn(CCN3CCOCC3)c1)nn2[C@H]1CC[C@@H](Oc2ccccc2F)CC1` [Example 397, 1-((1s,4s)-4-(2-fIuorophenoxy)cyclohexyl)-N-methyl-3-(1-(2-morpholinoethyl)-1H-pyrazol-4-yl)-1H-pyrazolo[4,3-c]pyridin-6-amine]: the IC50 in experiment [1] and in experiment [3] was under 10 nM each time.
As for `CNc1cc2c(cn1)n(-c1cnn(C)c1)nc2[C@H]1CC[C@@H](Oc2ccccc2F)CC1` [Example 479, 3-((1s,4s)-4-(2-fluorophenoxy)cyclohexyl)-N-methyl-1-(1-methyl-1H-pyrazol-4-yl)-1H-pyrazolo[3,4-c]pyridin-5-amine], the IC50 in experiment [1] and in experiment [3] was under 10 nM each time.
